Results published in patent US20250082633A1, “COMPOUNDS AND METHODS FOR MODULATING SPLICING” (REMIX THERAPEUTICS INC., priority 2021, published 2025).
pIC50: −log10 of the molar value. Like-named read-outs stand apart in the source and are kept apart here.

Tests used:
Assay type in all cases: cell-based
K562 cells = experiment: Cell Titer Glo 2.0 cell viability assay; conditions: Homo sapiens, 500 cells/well, 72 hours
Method: Compounds described herein were screened for toxicity in K562 (human chronic myelogenous leukemia) and SH-SY5Y (human neuroblastoma) cells using a Cell Titer Glo 2.0 assay. • Promega CellTiter-Glo® 2.0 Cell Viability Assay (cat #G9241) • Corning 384-well TC-treated microplates (cat #3570) Cells were plated at 500 cells/well (K562 cells) in 45 μL of IMDM supplemented with 10% FBS in a 384-well opaque plate. Wells containing only medium were used as a blank control. Test compounds (e.g., compounds of Formula (I), (II), or (III)) were first serially diluted in DMSO then diluted 1:100 with IMDM+10% FBS. The final concentration of DMSO was 0.1% in each well. The cells were incubated for 72 hours at 37° C. and 5% CO2 before assaying with Cell Titer Glo 2.0 reagent.

SMN2 mRNA = experiment: RT-qPCR splicing assay, gene panel, SMN2 canonical junction (CJ) mRNA; conditions: Homo sapiens; decrease in CJ mRNA levels; larger panel of genes; Table 3; read-out: SMN2 CJ IC50
Method: (§1) Compounds described herein were used to modulate RNA transcript abundance in cells. The expression of a target mRNA was measured by detecting the formation of an exon-exon junction in the canonical transcript (CJ). A compound mediated exon-inclusion event was detected by observing an increase in formation of a new junction with an alternative exon (AJ). Real-time qPCR assays were used to detect these splicing switches and interrogate the potency of various compounds towards different target genes. A high-throughput real time quantitative PCR (RT-qPCR) assay was developed to measure these two isoforms of the mRNA (CJ and AJ) for exemplary genes, such as HTT, SMN2, and MYB, together with a control housekeeping gene, GAPDH or GUSB or PPIA, used for normalization. Briefly, the A673 or K562 cell line was treated with various compounds described herein (e.g., compounds of Formula (I)). After treatment, the levels of the HTT, MYB, or SMN2 mRNA targets were determined from each sample of cell lysate by cDNA synthesis followed by qPCR.
(§2) The A673 cell line was cultured in DMEM with 10% FBS. Cells were diluted with full growth media and plated in a 96-well plate (15,000 cells in 100 ul media per well). The plate was incubated at 37° C. with 5% CO2 for 24 hours to allow cells to adhere. An 11-point 3-fold serial dilution of the compounds was made in DMSO then diluted in media in an intermediate plate. Compounds were transferred from the intermediate plate to the cell plate with the top dose at a final concentration of 10 uM in the well. Final DMSO concentration was kept at or below 0.25%. The cell plate was returned to the incubator at 37° C. with 5% CO2 for an additional 24 hours.
(§3) The K562 cell line was cultured in IMDM with 10% FBS. For K562, cells were diluted with full growth media and plated in either a 96-well plate (50,000 cells in 50 uL media per well) or a 384-well plate (8,000-40,000 cells in 45 uL media per well). An 11-point 3-fold serial dilution of the compounds were made in DMSO then diluted in media in an intermediate plate. Compound was transferred from the intermediate plate to the cell plate with the top dose at a final concentration of 10 uM in the well. Final DMSO concentration was kept at or below 0.25%. Final volume was 100 uL for 96-well plate and 50 uL for 384-well plate. The cell plate was then placed in an incubator at 37° C. with 5% CO2 for 24 hours.
(§4) The cells were then gently washed with 50 uL-100 uL cold PBS before proceeding to addition of lysis buffer. 30 uL-50 μL of room temperature lysis buffer with DNAse I (and optionally RNAsin) was added to each well. Cells were shaken/mixed thoroughly at room temperature for 5-10 minutes for lysis to take place and then 3 uL-5 μL of room temperature stop solution was added and wells were shaken/mixed again. After 2-5 minutes, the cell lysate plate was transferred to ice for RT-qPCR reaction setup. The lysates could also be frozen at −80° C. for later use.
(§5) In some cases, a direct lysis buffer was used. An appropriate volume of 3× lysis buffer (10 mM Tris, 150 mM NaCl, 1.5%-2.5% Igepal and 0.1-1 U/uL RNAsin, pH 7.4) was directly added to either K562 or A673 cells in media and mixed by pipetting 3 times. The plates were then incubated at room temperature with shaking/rocking for 20-50 minutes to allow for lysis to take place. After this time, the cell lysate plate was transferred to ice to set up for the RT-qPCR reactions. The lysates could also be frozen at −80° C. for later use.
(§6) To set up 10 uL RT-qPCR reactions, cell lysates were transferred to 384-well qPCR plates containing the master mix according to the table below. The plates were sealed, gently vortexed, and spun down before the run. The volumes were adjusted accordingly in some instances where the reaction was carried in 20 μL. The table below summarizes the components of the RT-qPCR reactions:
(§7) The RT-qPCR reaction was performed using a QuantStudio (ThermoFisher) under the following fast cycling conditions. […]

Target C = experiment: RT-qPCR splicing assay, gene panel, Target C canonical junction (CJ) mRNA; conditions: Homo sapiens; decrease in CJ mRNA levels; larger panel of genes; Table 3; read-out: Target C CJ IC50
Method: as §1, §2, §3, §4, §5, §6, §7

MYB mRNA = experiment: RT-qPCR splicing assay, MYB canonical (CJ) and alternative (AJ) junction mRNA; conditions: Homo sapiens; for pIC50: read-out: MYB CJ IC50; for AC50: increase in alternative junction mRNA, read-out: MYB AJ AC50
Method: as §1
(§8) • Cells-to-CT 1-step kit: ThermoFisher A25602, Cells-to-CT lysis reagent: ThermoFisher 4391851C, TaqMan™ Fast Virus 1-Step Master Mix: ThermoFisher 4444436 • GAPDH: VIC-PL, ThermoFisher 4326317E (Assay: Hs99999905_m1)—used for K562/suspension cell lines • GUSB: VIC-PL, ThermoFisher 4326320E (Assay: Hs99999908_m1)—used for K562/suspension cell lines • PPIA: VIC-PL, ThermoFisher 4326316E (Assay: Hs99999904_m1)—used for A673/adherent cell lines
as §2, §3, §4
as §5, with “use. […]” for “use.”

HTT mRNA = experiment: RT-qPCR splicing assay, HTT canonical (CJ) and alternative (AJ) junction mRNA; conditions: Homo sapiens; for pIC50: read-out: HTT CJ IC50; for AC50: increase in alternative junction mRNA, read-out: HTT AJ AC50
Method: as §1, §8, §2, §3, §4
as §5, with “use. […]” for “use.”

[1] = decrease in CJ mRNA levels, larger panel of genes, Table 3
[2] = decrease in canonical junction mRNA, A673 or K562 cells, 24 hours treatment, Table 2
[3] = A673 or K562 cells, 24 hours treatment, Table 2

SMILES	GI50 (K562 cells)	pIC50 (SMN2 mRNA)	pIC50 (Target C)	pIC50 (MYB mRNA; [1])	pIC50 (MYB mRNA; [2])	AC50 (MYB mRNA; [3])	pIC50 (HTT mRNA; [1])	pIC50 (HTT mRNA; [2])	AC50 (HTT mRNA; [3])
Cc1cn2nc(-c3cc(F)c4nn(C5CCNC6(CC6)C5)cc4c3)cc2c(C)n1 (stereo in doubt) [Compound 205, 2-[2-[(7S)-4-azaspiro[2.5]octan-7-yl]-7-fluoro-indazol-5-yl]-4,6-dimethyl-pyrazolo[1,5-a]pyrazine]	1 to 10 µM	6.00 to 7.00	5.00 to 6.00	5.00 to 6.00	5.00 to 6.00	0.1 to 1 µM	6.00 to 7.00	6.00 to 7.00	0.1 to 1 µM
Cc1cn2nc(-c3cc(F)c4nn(C5CCNC6(CC6)C5)cc4c3)cc2c(C)n1 (stereo in doubt) [Compound 206, 2-[2-[(7R)-4-azaspiro[2.5]octan-7-yl]-7-fluoro-indazol-5-yl]-4,6-dimethyl-pyrazolo[1,5-a]pyrazine]	0.1 to 1 µM	6.00 to 7.00	6.00 to 7.00	6.00 to 7.00	6.00 to 7.00	0.1 to 1 µM	> 7.00	> 7.00	0.1 to 1 µM
Cc1cn2nc(-c3cc(F)c4nn([C@H]5CCN(C)C6(CC6)C5)cc4c3)cc(C)c2n1 [Compound 175, 6-[7-fluoro-2-[(7S)-4-methyl-4-azaspiro[2.5]octan-7-yl]indazol-5-yl]-2,8-dimethyl-imidazo[1,2-b]pyridazine]	0.1 to 1 µM	–	> 7.00	6.00 to 7.00	6.00 to 7.00	< 0.1 µM	> 7.00	> 7.00	< 0.1 µM
Cc1cn2nc(-c3cc(F)c4nn([C@@H]5CCN(C)C6(CC6)C5)cc4c3)cc(C)c2n1 [Compound 176, 6-[7-fluoro-2-[(7R)-4-methyl-4-azaspiro[2.5]octan-7-yl]indazol-5-yl]-2,8-dimethyl-imidazo[1,2-b]pyridazine]	0.1 to 1 µM	–	6.00 to 7.00	6.00 to 7.00	6.00 to 7.00	1 to 10 µM	> 7.00	> 7.00	< 0.1 µM
Cc1cn2nc(-c3cc(F)c4nn([C@H]5CCN(C)C[C@@H]5F)cc4c3)cc(C)c2n1 [Compound 196, 6-[7-fluoro-2-[(3S,4S)-3-fluoro-1-methyl-4-piperidyl]indazol-5-yl]-2,8-dimethyl-imidazo[1,2-b]pyridazine]	> 10 µM	6.00 to 7.00	< 5.00	< 5.00	< 5.00	1 to 10 µM	5.00 to 6.00	5.00 to 6.00	1 to 10 µM
